From patent US20130267494A1, “1,4-OXAZEPANE DERIVATIVES” (priority 2010, published 2013)
Counter-ions that a name gives are not always drawn. Like-named read-outs stand apart in the source and are kept apart here.

Key:
Type in all cases: cell-based
[1] = biological target: T1, human serotonin transporter (Homo sapiens, UniProt P31645); assay: Inhibitory action on human serotonin transporter ([3H]-5-hydroxytryptamine uptake in CHO cells); conditions: CHO, relative to inhibitory activity of 10 μM Paroxetine as 100%, read-out: inhibitory rate (%); for inhibition at 1 µM: compound 1 μM
T1 construct: expressed in transfected cells
T1 sequence (P31645 whole entry): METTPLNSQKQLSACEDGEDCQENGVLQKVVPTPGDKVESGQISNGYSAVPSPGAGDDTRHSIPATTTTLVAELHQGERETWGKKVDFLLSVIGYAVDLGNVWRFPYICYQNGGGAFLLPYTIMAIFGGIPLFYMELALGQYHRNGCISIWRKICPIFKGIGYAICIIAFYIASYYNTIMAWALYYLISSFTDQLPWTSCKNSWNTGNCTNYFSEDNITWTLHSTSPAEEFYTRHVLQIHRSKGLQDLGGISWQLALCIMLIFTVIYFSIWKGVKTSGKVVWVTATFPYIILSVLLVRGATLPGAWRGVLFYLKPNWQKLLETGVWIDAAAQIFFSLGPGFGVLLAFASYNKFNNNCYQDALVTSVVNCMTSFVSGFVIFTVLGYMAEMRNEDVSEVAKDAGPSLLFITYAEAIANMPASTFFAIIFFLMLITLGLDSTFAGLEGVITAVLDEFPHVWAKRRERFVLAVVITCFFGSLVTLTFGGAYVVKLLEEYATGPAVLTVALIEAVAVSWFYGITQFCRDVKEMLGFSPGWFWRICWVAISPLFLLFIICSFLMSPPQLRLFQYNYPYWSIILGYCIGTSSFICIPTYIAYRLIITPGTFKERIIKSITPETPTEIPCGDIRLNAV
Source text: (§1) Human serotonin transporter cDNA was amplified from human brain cDNA library by PCR, and inserted into pCRII-TOPO vector (manufactured by Invitrogen). The base sequence was confirmed and modified, and subcloned to pcDNA3.1 vector (manufactured by Invitrogen), whereby a human serotonin transporter expression plasmid was constructed. Human norepinephrine transporter cDNA was purchased from Invitrogen, and the base sequence was confirm and modified, and subcloned to pcDNA3.1 vector, whereby a human norepinephrine transporter expression plasmid was constructed.
(§2) The monoamine transporter expression plasmids thus prepared were introduced into CHO-K1 cells using FuGENE6 (manufactured by Roche Diagnostics) and according to the attached protocol, whereby each expressing cell was established.
CHO cells stably expressing a human serotonin transporter were used for the measurement of human serotonin transporter inhibitory activity. Unless particularly indicated, these CHO cells were cultured in a Ham/F12 medium (Invitrogen) containing 10% fetal bovine serum (MOREGATE).
(§3) The cultured cells that reached almost confluent were rinsed with PBS (Invitrogen), detached with Trypsin/EDTA (Invitrogen), and collected by a centrifugal operation. The obtained cells were counted, and diluted to 3×10^5 cells per 1 mL medium, the mixture was dispensed to a 96 well white plate (Corning) at 100 μL per well, and cultured overnight in a CO2 incubator.
(§4) Then, an assay buffer (126 mM NaCl, 4.95 mM KCl, 1.26 mM KH2PO4, 1.26 mM MgSO4, 10 mM HEPES, 2.32 mM CaCl2, 5.52 mM Glucose, 0.5% BSA) was prepared, the medium in the cell plate was removed and the assay buffer was added by 80 μL. A test compound was diluted with the assay buffer to a 10-fold concentration of the final concentration, and the mixture was dispensed to a 96 well polypropylene plate. The diluted test compound was dispensed to the cell plate by 10 μL. [3H]-5-Hydroxytryptamine (GE Healthcare) was diluted with the assay buffer to 200 nM, and the mixture was dispensed to the cell plate by 10 μL. At 20 min from [3H]-5-hydroxytryptamine addition, the assay buffer was removed by suction, and the plate was washed twice with 150 μL of PBS (Invitrogen) per well. Microscinti20 (PerkinElmer) was dispensed to each well by 100 μL, and the mixture was stirred for about 30 min. The radioactivity was measured by TopCount (PerkinElmer).
The inhibitory activity of each compound (10 μM) was calculated as a relative activity value based on the inhibitory activity of 10 μM Paroxetine (serotonin transporter inhibitor) as 100%.
In addition, the inhibitory activity of each compound (1 μM) was calculated as a relative activity value based on the inhibitory activity of 10 μM Paroxetine (serotonin transporter inhibitor) as 100%.

[2] = biological target: T2, human norepinephrine transporter (Homo sapiens, UniProt P23975); assay: Inhibitory action on human norepinephrine transporter ([3H]-norepinephrine uptake in CHO cells); conditions: CHO, relative to inhibitory activity of 10 μM DMI as 100%
T2 construct: expressed in transfected cells
T2 sequence (P23975 whole entry): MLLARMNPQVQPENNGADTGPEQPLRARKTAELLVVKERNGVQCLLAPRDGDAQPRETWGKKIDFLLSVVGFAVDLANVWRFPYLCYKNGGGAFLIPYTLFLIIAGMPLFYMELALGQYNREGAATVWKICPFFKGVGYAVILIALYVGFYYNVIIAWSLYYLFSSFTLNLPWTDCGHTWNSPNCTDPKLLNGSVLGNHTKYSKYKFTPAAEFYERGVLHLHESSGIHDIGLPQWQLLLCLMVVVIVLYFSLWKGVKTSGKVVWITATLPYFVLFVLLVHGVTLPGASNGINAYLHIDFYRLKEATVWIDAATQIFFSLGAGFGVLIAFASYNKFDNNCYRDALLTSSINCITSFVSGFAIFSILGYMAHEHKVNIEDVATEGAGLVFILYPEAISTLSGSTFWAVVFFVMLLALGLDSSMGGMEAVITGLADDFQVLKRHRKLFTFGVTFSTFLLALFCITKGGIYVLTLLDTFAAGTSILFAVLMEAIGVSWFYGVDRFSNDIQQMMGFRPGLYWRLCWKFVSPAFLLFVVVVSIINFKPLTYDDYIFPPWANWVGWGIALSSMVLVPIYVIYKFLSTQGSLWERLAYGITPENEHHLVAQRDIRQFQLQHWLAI
Source text: as §1, §2
CHO cells stably expressing human norepinephrine transporter were used for the measurement of human norepinephrine transporter inhibitory activity. Unless otherwise indicated, these CHO cells were cultured in Ham/F12 medium (Invitrogen) containing 10% fetal bovine serum (MOREGATE).
as §3, with “medium, and” for “medium,”
as §4, with “μL. [3H]-Norepinephrine” for “μL. [3H]-5-Hydroxytryptamine”, “At 45” for “At 20”, “from [3H]-norepinephrine” for “from [3H]-5-hydroxytryptamine”
The inhibitory activity of each compound (10 μM) was calculated as a relative activity value based on the inhibitory activity of 10 μM DMI (norepinephrine transporter inhibitor) as 100%.
The inhibitory activity of each compound (1 μM) was calculated as a relative activity value based on the inhibitory activity of 10 μM DMI (norepinephrine transporter inhibitor) as 100%.

[3] = biological target: T3, human dopamine transporter (Homo sapiens, UniProt Q01959); assay: Inhibitory action on human dopamine transporter ([3H]-dopamine uptake in CHO cells); conditions: CHO, relative to inhibitory activity of 100 μM Nomifensine as 100%, read-out: inhibitory rate (%); for inhibition at 1 µM: compound 1 μM
T3 construct: expressed in transfected cells
T3 sequence (Q01959 whole entry): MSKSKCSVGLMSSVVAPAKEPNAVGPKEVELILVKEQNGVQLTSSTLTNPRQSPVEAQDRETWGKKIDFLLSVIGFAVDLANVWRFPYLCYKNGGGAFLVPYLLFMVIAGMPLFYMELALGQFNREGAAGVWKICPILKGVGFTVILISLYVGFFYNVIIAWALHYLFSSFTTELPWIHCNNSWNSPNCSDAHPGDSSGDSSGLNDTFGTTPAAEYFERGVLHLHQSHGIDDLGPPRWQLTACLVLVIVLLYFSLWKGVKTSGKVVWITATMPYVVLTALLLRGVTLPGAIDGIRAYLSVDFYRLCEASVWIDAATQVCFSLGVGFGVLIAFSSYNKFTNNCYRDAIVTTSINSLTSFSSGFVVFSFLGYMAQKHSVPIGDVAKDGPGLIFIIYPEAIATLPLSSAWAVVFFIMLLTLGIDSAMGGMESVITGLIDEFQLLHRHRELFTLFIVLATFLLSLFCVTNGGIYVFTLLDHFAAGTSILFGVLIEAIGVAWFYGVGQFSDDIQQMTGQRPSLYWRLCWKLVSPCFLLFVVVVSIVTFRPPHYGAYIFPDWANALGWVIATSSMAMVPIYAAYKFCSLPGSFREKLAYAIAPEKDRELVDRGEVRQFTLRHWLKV
Source text: SRα promoter contained in pTB1411 described in JP-A-H5-076385 was cleaved with restriction enzyme […](manufactured by TAKARA BIO INC.), blunt-ended, further cleaved with restriction enzyme EcoRI (manufactured by TAKARA BIO INC.), and fragmented. On the other hand, pCI vector was cleaved with restriction enzyme BglII (manufactured by TAKARA BIO INC.), blunt-ended with T4 DNA polymerase, and further cleaved with restriction enzyme EcoRI (manufactured by TAKARA BIO INC.). Into this site was inserted an SRa promoter fragment to give pCI-SRa. Then, pCI-SRa was cleaved with restriction enzyme ClaI (manufactured by TAKARA BIO INC.) and blunt-ended. Into this site was inserted a 1.63 Kb fragment obtained by cleaving pGFP-C1 (manufactured by TOYOBO) with restriction enzyme Bsu36I (manufactured by Daiichi Pure Chemicals Co., Ltd.) followed by blunt-ending, whereby pMSRα neo was prepared. Human dopamine transporter cDNA was amplified from human substantia nigra cDNA library by PCR, and inserted into the pCRII vector (manufactured by Invitrogen). The base sequence was confirmed, modified and subcloned to pMSRα neo, whereby a human dopamine transporter expression plasmid was constructed.
as §2
CHO cells stably expressing human dopamine transporter were used for the measurement of human dopamine transporter inhibitory activity. Unless otherwise indicated, these CHO cells were cultured in Ham/F12 medium (Invitrogen) containing 10% fetal bovine serum (MOREGATE).
as §3, with “One day before the assay, the cultured” for “The cultured”, “medium, and” for “medium,”
as §4, with “On the day of the test, an” for “Then, an”, “μL. [3H]-Dopamine” for “μL. [3H]-5-Hydroxytryptamine”, “nM, cold dopamine was diluted to 10 μM,” for “nM,”, “At 60” for “At 20”, “from [3H]-dopamine” for “from [3H]-5-hydroxytryptamine”
The inhibitory activity of each compound (10 μM) was calculated as a relative activity value based on the inhibitory activity of 100 μM Nomifensine (dopamine transporter inhibitor) as 100%.
The inhibitory activity of each compound (1 μM) was m calculated as a relative activity value based on the inhibitory activity of 100 μM Nomifensine (dopamine transporter inhibitor) as 100%.

[4] = compound 1 μM, read-out: inhibitory rate (%)

Row | inhibition at 1 µM [1] [%] | inhibition at 1 µM [2, 4] [%] | inhibition at 1 µM [3] [%] | inhibition at 10 µM ([1]; compound 10 μM, CHO cells expressing human serotonin transporter) [%] | inhibition at 10 µM ([2]; compound 10 μM, read-out: inhibitory rate (%)) [%] | inhibition at 10 µM ([3]; compound 10 μM) [%] | Compound | inhibition at 1 µM ([2]; read-out: inhibitory rate (%), compound 1 μM) [%]
1 | 8 | 86 | 83 | – | – | – | CCOC(=O)[C@H]1NCCOC[C@@H]1c1ccc(Cl)c(Cl)c1 (racemic) [Example 412, ethyl (5RS,6SR)-6-(3,4-dichlorophenyl)-1,4-oxazepane-5-carboxylate monohydrochloride] | –
2 | 61 | 102 | 37 | – | – | – | OC[C@@H]1OCCNC[C@H]1c1ccc(Cl)c(Cl)c1 [Example 488, [(6R,7R)-6-(3,4-dichlorophenyl)-1,4-oxazepan-7-yl]methanol monohydrochloride] | –
3 | 59 | 105 | 42 | – | – | – | OCCOC[C@H]1OCCNC[C@@H]1c1ccc(Cl)c(Cl)c1 (racemic) [Example 495, 2-{[(6RS,7RS)-6-(3,4-dichlorophenyl)-1,4-oxazepan-7-yl]methoxy}ethanol monohydrochloride] | –
4 | 99 | 98 | 94 | – | – | – | CC(=O)N(C)C[C@@H]1CNCCO[C@H]1c1ccc(Cl)c(Cl)c1 [Example 99, N-{[(6S,7R)-7-(3,4-dichlorophenyl)-1,4-oxazepan-6-yl]methyl}-N-methylacetamide monohydrochloride] | –

The remaining lines, values behind:

Row | Compound | inhibition at 1 µM [1] [%] | inhibition at 1 µM [2, 4] [%] | inhibition at 1 µM [3] [%] | inhibition at 10 µM ([1]; compound 10 μM, CHO cells expressing human serotonin transporter) [%] | inhibition at 10 µM ([2]; compound 10 μM, read-out: inhibitory rate (%)) [%] | inhibition at 10 µM ([3]; compound 10 μM) [%] | inhibition at 1 µM ([2]; read-out: inhibitory rate (%), compound 1 μM) [%]
5 | Cc1ccc(C2OCCNCC2CO)cc1Cl (stereo not drawn) [Example 405, [(6R*,7S*)-7-(3-chloro-4-methylphenyl)-1,4-oxazepan-6-yl]methanol monohydrochloride (retention time short)] | 71 | 100 | 12 | – | – | – | –
6 | OC[C@@]1(c2ccc(Cl)c(Cl)c2)CCNCCO1 [Example 47, [(7S)-7-(3,4-dichlorophenyl)-1,4-oxazepan-7-yl]methanol monohydrochloride] | 82 | – | 9 | – | – | – | 99
7 | CS(=O)(=O)C[C@@H]1CNCCO[C@H]1c1ccc(Cl)c(Cl)c1 [Example 92, (6R,7R)-7-(3,4-dichlorophenyl)-6-[(methylsulfonyl)methyl]-1,4-oxazepane monohydrochloride] | 97 | 96 | 86 | – | – | – | –
8 | CS(=O)(=O)N[C@H]1CNCCO[C@@H]1c1ccc(Cl)c(Cl)c1 [Example 266, N-[(6S,7R)-7-(3,4-dichlorophenyl)-1,4-oxazepan-yl]methanesulfonamide monohydrochloride] | 82 | 103 | 76 | – | – | – | –
9 | CS(=O)(=O)CC(=O)NC[C@@H]1CNCCO[C@H]1c1ccc(Cl)c(Cl)c1 [Example 114, N-{[(6S,7R)-7-(3,4-dichlorophenyl)-1,4-oxazepan-6-yl]methyl}-2-(methylsulfonyl)acetamide monohydrochloride] | 94 | 99 | 59 | – | – | – | –
10 | CS(=O)(=O)C[C@H]1CNCCOC1c1ccc(F)c(Cl)c1 (mixture of isomers) [Example 12, (6RS,7SR)-7-(3-chloro-4-fluorophenyl)-6-[(methylsulfonyl)methyl]-1,4-oxazepane monohydrochloride] | 87 | 97 | 39 | 97 | 100 | 90 | –
11 | O=C1CN([C@@H]2CNCCO[C@H]2c2ccc(Cl)c(Cl)c2)C(=O)N1 [Example 276, 1-[(6R,7S)-7-(3,4-dichlorophenyl)-1,4-oxazepan-6-yl]imidazolidine-2,4-dione monohydrochloride] | 87 | 103 | 94 | – | – | – | –
12 | O=C(O)c1cccn(C[C@@H]2CNCCO[C@H]2c2ccc(Cl)c(F)c2)c1=O (racemic) [Example 588, 1-{[(6RS, 7SR)-7-(4-chloro-3-fluoro-phenyl)-1,4-oxazepan-6-yl]methyl}-2-oxo-1,2-dihydro-pyridine-3-carboxylic acid] | 43 | 104 | 12 | – | – | – | –
